The target of assay [1] is T1, human V1a receptor (Homo sapiens, UniProt P37288).
T1 construct: expressed in transfected cells
Kind of assay: In-vitro binding assay (3H-arginine-8-vasopressin), V1a. The conditions noted are these: for pIC50: membrane containing human V1a receptor, 3H-arginine-8-vasopressin 0.65-0.75 nM. The method, then: (§1) Assay buffer is 50 mM Tris-Cl, 5 mM MgCl2, 0.1% BSA (pH 7.5) containing 5 μg/mL of aprotinin, leupeptin, pepstatin, 50 μg/mL bacitracin, and 1 mM Pefabloc (4-(2-aminoethyl)-benzenesulfonyl fluoride, hydrochloride manufactured by Roche Diagnostics Corporation, Indianapolis, Ind. and distributed by Boehringer Mannheim). H3 vasopressin is ^3H-arginine-8-vasopressin (NEN Life Sciences, Boston, Mass.; 68.5 Ci/mmol, final concentration in assay is 0.65-0.75 nM). Into the wells of a 96-well round bottom polypropylene plates are added buffer, test compound, membrane (containing human V1a or V2 receptor), and H3 vasopressin. The reaction plates are allowed to sit at room temperature for one hour. The samples are filtered through Unifilter GF/C plates (PerkinElmer Life Sciences, Boston, Mass.) presoaked in 0.3 polyethyleneimine. The plates are washed 5 times with cold physiological saline containing 0.05% Tween 20. After drying, the bottom of the filter plates are sealed and 0.025 mL of Microscint-20 (Packard Instrument Co, Meriden, Conn.) is added to each filter. The top of the plate is sealed, and the plate is counted. Non-specific binding is determined by the addition of 1.25 μM arginine-8-vasopressin in those wells.
(§2) The % inhibition for the test results was calculated according to the formula: […]
Where an IC50 value was not obtained, the percent inhibition values are shown in parentheses (*) and were obtained at a test concentration of 0.2 μM.

In assay [2] the target is T2, human V2 receptor (Homo sapiens, UniProt P30518). Kind of assay: In-vitro binding assay (3H-arginine-8-vasopressin), V2. The note with it: for pIC50: membrane containing human V2 receptor, 3H-arginine-8-vasopressin 0.65-0.75 nM; for inhibition at 0.2 µM: test concentration of 0.2 μM, read-out: V2 binding percent inhibition (in parentheses, where an IC50 value was not obtained). As to the method:
as §1, with “H3 vasopressin is ^3H-arginine-8-vasopressin (NEN Life Sciences, Boston, Mass.; 68.5 Ci/mmol, final concentration in assay is 0.65-0.75 nM).” left out, “counted.” for “counted. Non-specific binding is determined by the addition of 1.25 μM arginine-8-vasopressin in those wells.”
as §2

The target of assay [3] is T1, human V1a receptor. Kind of assay: cell-based. As to the method: The V1a receptor is a G-protein coupled receptor, which upon activation triggers an increase in intracellular calcium mobilization. To evaluate compounds for their functional V1a receptor activity, HEK-293 cells were transfected with the human V1a receptor (V1a-HEK cells). HEK-293 cells were grown in DMEM (Dulbecco's modified Eagle Media) supplemented with 10% FBS and glutamine. HEK-cells were passed biweekly by trypsinization and seeded into 96 well plates at 33,000 cells per well. HEK-293 cells were transfected with human V1a receptor DNA using DMRIE-C reagent from Life Technologies (Carlsbad, Calif.). Stable lines were generated by selecting cells grown in culture media containing geneticin. After growing in Packard Clear-View black 96 well plates for 4-6 days, V1a-HEK cells were loaded with the calcium-sensitive fluorescence dye, FLUO-3 AM. Changes in intracellular calcium mobilization were measured by quantitating intracellular fluorescence using FLIPR (Fluorometric Imaging Plate Reader; Molecular Devices, Sunnyvale, Calif.). Test compounds were first added to the cells and the resulting changes in fluorescence measured to detect receptor agonistic activity. Five minutes later the cells were challenged with vasopressin to test compounds for their antagonistic activity. Receptor antagonists inhibit the ability of vasopressin to stimulate increases in intracellular fluorescence.

In assay [4] the target is T2, human V2 receptor. Briefly: V2 vasopressin receptor functional activity (cAMP accumulation). The assay is classed as cell-based. Set-up: expressed in transfected cells; host or cells: HEK-293. The conditions noted are these: V2-HEK cells; block of vasopressin-stimulated cAMP accumulation; read-out: V2 (functional) IC50. As to the method:
The V2 receptor is also a G-protein coupled receptor which when activated induces an increase in cAMP turnover. Antagonism against the V2 receptor is determined by measuring cAMP accumulation in transfected HEK-293 cells expressing the human V-2 receptor (V2-HEK cells). Compounds are tested for their ability to block the stimulatory effects of vasopressin on cAMP accumulation. The cell content of cAMP is measured by radioimmunoassay using NEN flashplates.
For orientation: cAMP levels reflect the balance of adenylyl cyclase and phosphodiesterase activity.

Where [5] appears, read: V1 (functional) IC50, V1a-HEK cells, inhibition of vasopressin-stimulated intracellular calcium mobilization.

Each structure is given as a SMILES string. pIC50: −log10 of the molar value.

T2 sequence (P30518 whole entry): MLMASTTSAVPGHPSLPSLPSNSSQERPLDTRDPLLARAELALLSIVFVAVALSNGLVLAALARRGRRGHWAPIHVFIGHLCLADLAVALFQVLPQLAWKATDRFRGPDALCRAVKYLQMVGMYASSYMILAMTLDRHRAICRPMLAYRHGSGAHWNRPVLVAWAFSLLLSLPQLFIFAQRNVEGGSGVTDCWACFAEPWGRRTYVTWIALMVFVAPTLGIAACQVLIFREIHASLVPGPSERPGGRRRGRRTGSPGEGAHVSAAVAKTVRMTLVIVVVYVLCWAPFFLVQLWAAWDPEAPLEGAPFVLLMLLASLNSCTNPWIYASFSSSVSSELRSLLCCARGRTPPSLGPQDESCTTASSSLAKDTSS
T1 sequence (P37288 whole entry): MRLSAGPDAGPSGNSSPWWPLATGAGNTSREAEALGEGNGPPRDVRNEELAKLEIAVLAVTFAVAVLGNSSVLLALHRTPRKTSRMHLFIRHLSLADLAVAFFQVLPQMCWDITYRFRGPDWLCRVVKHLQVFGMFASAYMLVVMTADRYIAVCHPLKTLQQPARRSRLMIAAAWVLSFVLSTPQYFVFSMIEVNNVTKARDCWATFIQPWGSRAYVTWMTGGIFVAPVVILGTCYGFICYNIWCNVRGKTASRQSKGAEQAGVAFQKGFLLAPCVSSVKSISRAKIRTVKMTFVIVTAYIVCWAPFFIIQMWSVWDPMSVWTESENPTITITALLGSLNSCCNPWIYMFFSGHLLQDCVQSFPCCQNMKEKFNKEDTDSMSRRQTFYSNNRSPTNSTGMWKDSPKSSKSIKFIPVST

On to `O=C(Nc1ccc(C(=O)N2CC[C@@]3(CCCC3=NO)Cc3ccccc32)cc1)c1cc(F)ccc1Cl` [Cpd 7, (R)—N-[4-(2-chloro-5-fluoro-phenylcarbonyl)amino-phenylcarbonyl]-2-hydroxyimino-spiro[cyclopentane-1,4′-benzo[b]azepane]], for which the pIC50 in assay [1] was 8.10; in assay [2] it was 7.55; in assay [3] (setting [5]), 7.74; in assay [4] it was 7.62.
As to `NC1CCCC12CCN(C(=O)c1ccc(NC(=O)c3ccccc3-c3ccccc3)cc1)c1ccccc1C2` (centres unmarked) [Cpd 39, 2-amino-N-[4-(biphen-2-ylcarbonyl)amino-phenylcarbonyl]-spiro[cyclopentane-1,4′-benzo[b]azepane]], the pIC50 is 7.10 in assay [1], 6.96 in assay [2], 6.14 in assay [3] and 6.16 in assay [4].
As to `O=C(Nc1ccc(C(=O)N2CC[C@]3(CCCC3=NO)Cc3ccccc32)cc1)c1cc(F)ccc1Cl` [Cpd 45, (S)—N-[4-(2-chloro-5-fluoro-phenylcarbonyl)amino-phenylcarbonyl]-2-hydroxyimino-spiro[cyclopentane-1,4′-benzo[b]azepane]], the inhibition at 0.2 µM in assay [1] (test concentration of 0.2 μM, read-out: V1a binding percent inhibition (in parentheses, where an IC50 value was not obtained)) was found to be 67%; in assay [2], 10%. Further, the results for the pIC50 in assay [3] (setting [5]) and in assay [4] were 6.24 and 6.26, respectively.
In the case of `COc1cc(C(=O)N2CCC3(CCCC3=NO)Cc3ccccc32)ccc1NC(=O)c1cc(F)ccc1Cl` (centres unmarked) [Cpd 42, N-[3-methoxy-4-(2-chloro-5-fluoro-phenylcarbonyl)amino-phenylcarbonyl]-2-hydroxyimino-spiro[cyclopentane-1,4′-benzo[b]azepane]], the negative logarithm of the IC50 (pIC50) was 7.92 in assay [1], 7.41 in assay [2], 7.22 in assay [3] (setting [5]) and 7.04 in assay [4].
As to `CN(C)N=C1CCCC12CCN(C(=O)c1ccc(NC(=O)c3cc(F)ccc3Cl)cc1)c1ccccc1C2` (centres unmarked) [Cpd 3, N-[4-(2-chloro-5-fluoro-phenylcarbonyl)amino-phenylcarbonyl]-2-dimethylaminoimino-spiro[cyclopentane-1,4′-benzo[b]azepane]], the negative-log IC50 (pIC50) in assay [1] is 8.05; in assay [3] (setting [5]), 7.70; in assay [4], 6.60. For the same compound, the inhibition at 0.2 µM in assay [2] came out at 48%.
Take `O=C(NN=C1CCCC12CCN(C(=O)c1ccc(NC(=O)c3cc(F)ccc3Cl)cc1)c1ccccc1C2)c1cccnc1` (centres unmarked) [Cpd 4, N-[4-(2-chloro-5-fluoro-phenylcarbonyl)amino-phenylcarbonyl]-2-pyridin-3-ylcarbonylaminoimino-spiro[cyclopentane-1,4′-benzo[b]azepane]]: the negative logarithm of the IC50 (pIC50) in assay [1] was 7.92; in assay [2], 7.21; in assay [3] (setting [5]), 7.70; in assay [4], 7.37.
As to `NCCON=C1CCCC12CCN(C(=O)c1ccc(NC(=O)c3cccc(F)c3)cc1)c1ccccc1C2` (centres unmarked) [Cpd 41, N-[4-(3-fluoro-phenylcarbonyl)amino-phenylcarbonyl]-2-(2-amino-ethoxy)imino-spiro[cyclopentane-1,4′-benzo[b]azepane]], the values for the pIC50 in assay [1], in assay [3] and in assay [4] were 8.10, 7.70 and 6.15, respectively. In addition, the inhibition at 0.2 µM in assay [2] amounted to 55%.
Turning to `NCC(=O)NC1CCCC12CCN(C(=O)c1ccc(NC(=O)c3ccccc3-c3ccccc3)cc1)c1ccccc1C2` (centres unmarked) [Cpd 40, 2-(aminomethylcarbonyl)amino-N-[4-(biphen-2-ylcarbonyl)amino-phenylcarbonyl]-spiro[cyclopentane-1,4′-benzo[b]azepane]], the pIC50 was 7.64 in assay [1], 7.82 in assay [2], 6.54 in assay [3] and 6.70 in assay [4].
With `O=C(Nc1ccc(C(=O)N2CCC3(CCCC3=NNc3ccccn3)Cc3ccccc32)cc1)c1cc(F)ccc1Cl` (centres unmarked) [Cpd 43, N-[4-(2-chloro-5-fluoro-phenylcarbonyl)amino-phenylcarbonyl]-2-pyridin-2-ylaminoimino-spiro[cyclopentane-1,4′-benzo[b]azepane]], the pIC50 in assay [1] was 8.30; in assay [2], 7.25; in assay [3] (setting [5]), 7.10; in assay [4] it was 6.70.
The corresponding values for `NN=C1CCCC12CCN(C(=O)c1ccc(NC(=O)c3cc(F)ccc3Cl)cc1)c1ccccc1C2` (centres unmarked) [Cpd 1, 2-aminoimino-N-[4-(2-chloro-5-fluoro-phenylcarbonyl)amino-phenylcarbonyl]-spiro[cyclopentane-1,4′-benzo[b]azepane]] are 8.52, 7.64, 8.00 and 7.27.
With `CN(C)C1CCCC12CCN(C(=O)c1ccc(NC(=O)c3cc(F)ccc3Cl)cc1)c1ccccc1C2` (centres unmarked) [Cpd 6, N-[4-(2-chloro-5-fluoro-phenylcarbonyl)amino-phenylcarbonyl]-2-dimethylamino-spiro[cyclopentane-1,4′-benzo[b]azepane]], the pIC50 in assay [1] was 8.00; in assay [3], 7.15; in assay [4], 6.97. In addition, the inhibition at 0.2 µM in assay [2] worked out at 63%.
As for `NN=C1CCCC12CCN(C(=O)c1ccc(NC(=O)c3ccccc3-c3ccccc3)cc1)c1ccccc1C2` (centres unmarked) [Cpd 38, 2-aminoimino-N-[4-(biphen-2-ylcarbonyl)amino-phenylcarbonyl]-spiro[cyclopentane-1,4′-benzo[b]azepane]], the negative-log IC50 (pIC50) in assay [1] was 7.68; in assay [2], 7.62; in assay [3] (setting [5]), greater than 7.52; in assay [4], 7.40.
For the compound `Cn1ccnc1C1=CCCC12CCN(C(=O)c1ccc(NC(=O)c3cc(F)ccc3Cl)cc1)c1ccccc1C2` (centres unmarked) [Cpd 5, N-[4-(2-chloro-5-fluoro-phenylcarbonyl)amino-phenylcarbonyl]-2-(1-methyl-1H-imidazol-2-yl)-spiro[cyclopent-2-ene-1,4′-benzo[b]azepane]], the negative-log IC50 (pIC50) in assay [1] was 8.05; in assay [2], 7.08; in assay [3], 6.89; in assay [4], 7.18.
Regarding `Cc1ccccc1C(=O)Nc1ccc(C(=O)N2CCC3(CCCC3=NO)Cc3ccccc32)cc1` (centres unmarked) [Cpd 49, N-[4-(2-methyl-phenylcarbonyl)amino-phenylcarbonyl]-2-hydroxyimino-spiro[cyclopentane-1,4′-benzo[b]azepane]], the values for the pIC50 in assay [1] and in assay [2] were 7.92 and 7.47, respectively.
Taken in the same sequence, the figures for `Cc1ccc(F)cc1C(=O)Nc1ccc(C(=O)N2CCC3(CCCC3=NO)Cc3ccccc32)cc1` (centres unmarked) [Cpd 48, N-[4-(2-methyl-5-fluoro-phenylcarbonyl)amino-phenylcarbonyl]-2-hydroxyimino-spiro[cyclopentane-1,4′-benzo[b]azepane]] were 7.80 and 7.59.

The pIC50 is the negative decadic logarithm of the IC50, by convention in mol/L. As a reminder, the inhibition is how much of the control response was suppressed.

For the origin of these results see patent US20080306044A1, “SPIROBENZOAZEPANES AS VASOPRESSIN ANTAGONISTS” (priority 2007, published 2008).
